Reference: patent US11584744B2 (UNIVERSITY OF WASHINGTON, priority 2017, dated 2023)
Values after ≈ are worked out from the molar mass of the structure shown. Read-outs that look alike come from different tables or passages of the source.

Key:
MetRS (C. parvum) = MetRS (C. parvum) (Cryptosporidium parvum, UniProt Q5CVN0); assay: MetRS (C. parvum) enzyme inhibition; type: biochemical; settings: read-out: (C) MetRS (C. parvum) IC50
[1] = molecular target: recombinant S. aureus MetRS enzyme (Staphylococcus aureus, UniProt A0A0H2XID2); assay: Inhibition of SaMetRS, ATP depletion assay; type: biochemical; settings: read-out: (B) MetRS (S. aureus) IC50
Procedure: Production of recombinant S. aureus MetRSs. The SaMetRS gene (UniProtKB—A0A0H2XID2) was PCR amplified (Sense 5′-[…]-3′ (SEQ ID NO: 1) and Antisense 5′-[…]-3′ (SEQ ID NO:2)) from genomic DNA isolated from S. aureus (ATCC 29213) cultures. The PCR product was then cloned into the AVA0421 plasmid and sequence verified. The expression of recombinant protein was performed as previously described. The N-terminal 6-His fusion proteins were purified by nickel affinity chromatography followed by size exclusion gel chromatography (Superdex 75 26/60; GE Biosciences, Piscataway, N.J.).
Enzyme assays. Inhibition of SaMetRS was measured using the ATP depletion assay as previously described with some modifications. Compounds were pre-incubated for 15 minutes at room temperature in a 96-well plate with 400 μg/mL bulk E. coli tRNA, 25 nM SaMetRS, 0.1 U/mL pyrophosphatase, 0.2 mM spermine, 0.1 mg/mL bovine serum albumin, 2.5 mM dithiothreitol, 25 mM HEPES-KOH pH 7.9, 10 mM MgCl2, 50 mM KCl, and 2% DMSO. Reagents were purchased from Sigma-Aldrich or Roche. The reaction was started with the addition of 150 nM ATP and 20 μM L-methionine and after 120 minute incubation was stopped by the addition of an equal volume (50 μL) of Kinase-Glo® (Promega). Percent inhibition=100×(test compound−AVG low control)/(AVG high control−AVG low control) where the low control is all reagents except the compound and the high control is all reagents except the compounds and L-methionine. IC50 values were calculated by non-linear regression, sigmoidal-dose response, in Prism 3.0.

[2] = system: S. aureus MSSA (ATCC 29213); assay: MIC susceptibility testing; type: cell-based, Staphylococcus aureus; settings: S. aureus ATCC 29213; for MIC: Staphylococcus aureus, read-out: (F) S. aureus (ATCC 29213) MIC
[3] = system: S. aureus MRSA (ATCC 33591); assay: MIC susceptibility testing; type: cell-based, Staphylococcus aureus; settings: Staphylococcus aureus, MRSA ATCC33591; read-out: (G) MRSA (ATCC33591) MIC
How it was run: (§1)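 CLSI broth microdilution with two-fold compound dilutions, in triplicate; cells added in medium at 1×10^6 CFUs/mL, DMSO ≤0.5%. Media: MHB for S. aureus, CA-MHB for E. coli and E. faecium, CA-MHB plus 3% laked horse blood for S. pyogenes (5% CO2).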

C. parvum = C. parvum growth inhibition; type: cell-based, Cryptosporidium parvum; settings: read-out: (J) C. parvum EC50
MetRS (T. brucei) = molecular target: T1, MetRS (T. brucei) (Trypanosoma brucei brucei, UniProt Q38C91); assay: MetRS (T. brucei) enzyme inhibition; type: biochemical
T1 sequence (Q38C91 1-773): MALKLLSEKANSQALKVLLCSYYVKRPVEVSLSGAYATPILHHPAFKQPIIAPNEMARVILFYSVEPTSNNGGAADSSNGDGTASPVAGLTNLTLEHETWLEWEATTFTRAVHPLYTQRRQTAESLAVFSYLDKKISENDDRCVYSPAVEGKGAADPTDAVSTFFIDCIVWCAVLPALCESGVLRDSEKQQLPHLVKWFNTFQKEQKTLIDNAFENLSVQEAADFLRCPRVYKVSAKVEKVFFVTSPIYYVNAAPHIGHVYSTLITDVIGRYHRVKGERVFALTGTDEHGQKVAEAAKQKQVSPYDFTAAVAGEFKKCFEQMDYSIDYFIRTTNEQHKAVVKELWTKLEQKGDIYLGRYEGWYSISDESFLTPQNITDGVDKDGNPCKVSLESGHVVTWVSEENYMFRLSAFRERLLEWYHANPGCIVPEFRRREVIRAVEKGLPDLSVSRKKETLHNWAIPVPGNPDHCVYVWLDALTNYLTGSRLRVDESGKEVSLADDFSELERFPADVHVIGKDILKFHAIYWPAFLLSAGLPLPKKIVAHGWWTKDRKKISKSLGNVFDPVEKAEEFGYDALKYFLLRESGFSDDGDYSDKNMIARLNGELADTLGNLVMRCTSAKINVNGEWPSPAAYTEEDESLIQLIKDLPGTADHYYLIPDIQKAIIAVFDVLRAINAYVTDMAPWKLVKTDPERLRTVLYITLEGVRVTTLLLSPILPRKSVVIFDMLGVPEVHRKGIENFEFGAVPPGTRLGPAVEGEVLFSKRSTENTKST

T. cruzi = T. cruzi growth inhibition; type: cell-based, Trypanosoma cruzi; settings: read-out: (E) T. cruzi EC50
T. brucei = T. brucei growth inhibition; type: cell-based, Trypanosoma brucei; settings: read-out: (D) T. brucei EC50
[4] = system: E. faecium VRE (ATCC 51559); assay: MIC susceptibility testing; type: cell-based, Enterococcus faecium; settings: Enterococcus faecium, E. faecium ATCC 51559; read-out: (I) E. faecium (ATCC 51559) MIC
How it was run: as §1

MetRS (C. parvum), sequence (Q5CVN0 entry or part of it): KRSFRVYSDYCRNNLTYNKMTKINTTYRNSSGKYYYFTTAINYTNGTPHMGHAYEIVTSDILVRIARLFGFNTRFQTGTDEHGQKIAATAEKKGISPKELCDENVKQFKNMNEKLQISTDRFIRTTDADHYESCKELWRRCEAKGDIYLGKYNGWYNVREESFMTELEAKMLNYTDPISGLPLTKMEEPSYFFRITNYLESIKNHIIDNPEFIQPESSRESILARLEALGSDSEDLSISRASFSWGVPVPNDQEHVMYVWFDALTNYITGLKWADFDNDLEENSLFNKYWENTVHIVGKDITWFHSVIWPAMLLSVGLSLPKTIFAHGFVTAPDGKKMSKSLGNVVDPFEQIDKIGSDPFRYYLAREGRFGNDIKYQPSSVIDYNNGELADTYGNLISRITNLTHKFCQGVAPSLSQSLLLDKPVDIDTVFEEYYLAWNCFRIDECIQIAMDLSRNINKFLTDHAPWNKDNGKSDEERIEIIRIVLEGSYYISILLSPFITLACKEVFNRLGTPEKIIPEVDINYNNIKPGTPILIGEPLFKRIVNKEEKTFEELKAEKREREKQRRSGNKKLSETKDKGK
recombinant S. aureus MetRS enzyme, sequence (A0A0H2XID2 2-657): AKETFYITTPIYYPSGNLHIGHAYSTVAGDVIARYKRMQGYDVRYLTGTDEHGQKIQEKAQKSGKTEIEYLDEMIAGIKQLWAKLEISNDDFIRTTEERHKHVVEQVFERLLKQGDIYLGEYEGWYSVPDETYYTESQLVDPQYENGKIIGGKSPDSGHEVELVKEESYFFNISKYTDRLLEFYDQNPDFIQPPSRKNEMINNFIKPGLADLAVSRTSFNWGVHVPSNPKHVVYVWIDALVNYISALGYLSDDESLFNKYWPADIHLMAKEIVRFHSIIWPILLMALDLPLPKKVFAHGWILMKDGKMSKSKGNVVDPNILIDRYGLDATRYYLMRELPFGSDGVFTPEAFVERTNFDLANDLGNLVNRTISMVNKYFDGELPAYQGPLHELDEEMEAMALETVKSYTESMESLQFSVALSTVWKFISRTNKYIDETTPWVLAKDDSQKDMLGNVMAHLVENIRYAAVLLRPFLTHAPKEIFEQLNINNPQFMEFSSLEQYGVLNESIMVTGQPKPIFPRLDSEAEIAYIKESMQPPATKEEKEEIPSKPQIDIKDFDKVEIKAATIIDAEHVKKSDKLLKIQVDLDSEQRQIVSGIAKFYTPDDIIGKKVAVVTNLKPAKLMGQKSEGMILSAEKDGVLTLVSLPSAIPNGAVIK

Compound	IC50 (MetRS (C. parvum))	IC50 [1]	MIC [2]	MIC [3]	EC50 (C. parvum; Cryptosporidium parvum)	EC50 (C. parvum)	IC50 (MetRS (T. brucei))	EC50 (T. cruzi; Trypanosoma cruzi)	(F) S. aureus (ATCC 29213) MIC [2]	EC50 (T. brucei; Trypanosoma brucei)	EC50 (T. brucei)	EC50 (T. cruzi)	MIC [4]
COCCn1c(Cc2ccc(Cl)cc2Cl)cn(Cc2nc3ccc(F)nc3[nH]2)c1=O [Compound 2077, 4-[(2,4-dichlorophenyl)methyl]-1-({5-fluoro-1H-imidazo[4,5-b]pyridin-2-yl}methyl)-3-(2-methoxyethyl)-2,3-dihydro-1H-imidazol-2-one]	< 40 nM	< 25 nM	0.818 µg/mL (≈ 1.82 µM)	> 2.5 µg/mL	475 nM	283 nM	< 40 nM	215 nM	–	–	–	–	–
CCCn1c(Cc2ccc(Cl)cc2Cl)cn(Cc2nc3ccc(Cl)nc3[nH]2)c1=O [Compound 2079, 1-({5-chloro-1H-imidazo[4,5-b]pyridin-2-yl}methyl)-4-[(2,4-dichlorophenyl)-methyl]-3-propyl-2,3-dihydro-1H-imidazol-2-one]	< 40 nM	< 25 nM	0.044 µg/mL (≈ 0.0976 µM)	> 2.5 µg/mL	–	–	< 40 nM	26 nM	0.0391 µg/mL	< 0.91 nM	1.79 nM	22.5 nM	–
O=c1n(Cc2nc3ccc(F)nc3[nH]2)cc(Cc2ccc(Cl)cc2Cl)n1CC1CCOCC1 [Compound 2087, 4-[(2,4-dichlorophenyl)methyl]-1-({5-fluoro-1H-imidazo[4,5-b]pyridin-2-yl}methyl)-3-[(oxan-4-yl)methyl]-2,3-dihydro-1H-imidazol-2-one]	< 40 nM	< 25 nM	0.254 µg/mL (≈ 0.518 µM)	1.67 µg/mL (≈ 3.41 µM)	–	–	< 40 nM	359 nM	–	–	–	–	–
O=c1n(Cc2nc3nc(F)ccc3[nH]2)cc(Cc2ccc(Cl)cc2Cl)n1C1CCOCC1 [Compound 2088, 4-[(2,4-dichlorophenyl)methyl]-1-({5-fluoro-1H-imidazo[4,5-b]pyridin-2-yl}methyl)-3-(oxan-4-yl)-2,3-dihydro-1H-imidazol-2-one]	< 40 nM	< 25 nM	0.424 µg/mL (≈ 0.89 µM)	1.5 µg/mL (≈ 3.15 µM)	–	–	< 40 nM	263 nM	–	–	–	–	–
CCn1c(Cc2ccc(Cl)cc2Cl)cn(Cc2nc3ccc(Br)nc3[nH]2)c1=O [Compound 2091, 1-({5-bromo-1H-imidazo[4,5-b]pyridin-2-yl}methyl)-4-[(2,4-dichlorophenyl)-methyl]-3-ethyl-2,3-dihydro-1H-imidazol-2-one]	< 40 nM	< 25 nM	0.199 µg/mL (≈ 0.414 µM)	> 2.5 µg/mL	598 nM	–	< 40 nM	59 nM	–	2.8 nM	–	40.6 nM	–
CS(=O)(=O)c1nc(Cc2ccc(Cl)cc2Cl)cn1Cc1nc2ccc(F)nc2[nH]1 [Compound 2105, 4-[(2,4-dichlorophenyl)methyl]-1-({5-fluoro-1H-imidazo[4,5-b]pyridin-2-yl}methyl)-2-methanesulfonyl-1H-imidazole]	109 nM	< 25 nM	2.15 µg/mL (≈ 4.73 µM)	–	–	–	< 40 nM	867 nM	–	71.5 nM	–	–	–
CS(=O)(=O)c1nc(Cc2ccc(Cl)cc2Cl)cn1Cc1nc2nc(Cl)ccc2[nH]1 [Compound 2111, 1-({5-chloro-1H-imidazo[4,5-b]pyridin-2-yl}methyl)-4-[(2,4-dichlorophenyl)methyl]-2-methanesulfonyl-1H-imidazole]	146 nM	< 25 nM	1.25 µg/mL (≈ 2.66 µM)	–	–	–	< 40 nM	445 nM	–	54.6 nM	–	–	–
COc1cc(-c2cccc3nc(Cc4nc5nc(F)ccc5[nH]4)cn23)c(Cl)cc1Cl [Compound 2129, 5-(2,4-dichloro-5-methoxyphenyl)-2-({5-fluoro-1H-imidazo[4,5-b]pyridin-2-yl}methyl)imidazo[1,2-a]pyridine]	< 40 nM	< 25 nM	–	–	–	–	< 40 nM	102 nM	–	–	–	82 nM	–
Fc1ccc2[nH]c(Cc3cn4c(-c5ccc(Cl)cc5Cl)cccc4n3)nc2n1 [Compound 2135, 5-(2,4-dichlorophenyl)-2-({5-fluoro-1H-imidazo[4,5-b]pyridin-2-yl}methyl)imidazo[1,2-a]pyridine]	56.7 nM	< 25 nM	0.592 µg/mL (≈ 1.44 µM)	–	–	–	< 40 nM	2160 nM	–	99.3 nM	–	–	1.33 µg/mL (≈ 3.23 µM)
O=c1n(Cc2nc3nc(F)ccc3[nH]2)cc(Cc2ccc(Cl)cc2Cl)n1CC(F)F [Compound 2139, 4-[(2,4-dichlorophenyl)methyl]-3-(2,2-difluoroethyl)-1-({5-fluoro-1H-imidazo[4,5-b]pyridin-2-yl}methyl)-2,3-dihydro-1H-imidazol-2-one]	< 40 nM	< 25 nM	0.0776 µg/mL (≈ 0.17 µM)	0.307 µg/mL (≈ 0.673 µM)	193 nM	–	< 40 nM	–	–	3.21 nM	–	–	–
COc1cc(Cl)c(-c2cccc3nc(Cc4nc5nc(F)ccc5[nH]4)cn23)cc1OC [Compound 2145, 5-(2-chloro-4,5-dimethoxyphenyl)-2-({5-fluoro-1H-imidazo[4,5-b]pyridin-2-yl}methyl)imidazo[1,2-a]pyridine]	74.7 nM	< 25 nM	–	–	> 2000 nM	–	< 40 nM	66.7 nM	–	–	–	129 nM	–
COc1ccc(-c2cccc3nc(Cc4nc5nc(C(F)(F)F)ccc5[nH]4)cn23)c(Cl)c1 [Compound 2166, 5-(2-chloro-4-methoxyphenyl)-2-{[5-(trifluoromethyl)-1H-imidazo[4,5-b]pyridin-2-yl]methyl}imidazo[1,2-a]pyridine]	> 1000 nM	177 nM	> 1.25 µg/mL	–	–	–	< 40 nM	596 nM	–	> 200 nM	–	–	> 2.5 µg/mL
COc1ccc(-c2cn(Cc3ccccc3)c3c2CN(Cc2nc4nc(Cl)ccc4[nH]2)CC3)c(Cl)c1 [Compound 2176, 2-((1-benzyl-3-(2-chloro-4-methoxyphenyl)-6,7-dihydro-1H-pyrrolo[3,2-c]pyridin-5(4H)-yl)methyl)-5-chloro-1H-imidazo[4,5-b]pyridine]	80 nM	< 25 nM	> 0.5 µg/mL	> 2.5 µg/mL	–	–	< 40 nM	283 nM	–	40.6 nM	–	–	–
COc1ccc(-c2cnc(N3CCN(C(C)=O)CC3)c3nc(Cc4nc5nc(Cl)ccc5[nH]4)cn23)c(Cl)c1 [Compound 2185, 1-{4-[2-({5-chloro-1H-imidazo[4,5-b]pyridin-2-yl}methyl)-5-(2-chloro-4-methoxyphenyl)imidazo[1,2-a]pyrazin-8-yl]piperazin-1-yl}ethan-1-one]	< 40 nM	< 25 nM	0.358 µg/mL (≈ 0.649 µM)	1.2 µg/mL (≈ 2.18 µM)	243 nM	–	< 40 nM	71.6 nM	–	–	–	90.9 nM	–
